Reference: PubChem BioAssay AID256 (DTP/NCI, 2004)
Inconclusive results and toxic doses are left out. The calls were made as follows: active = survival T/C of 150% or more; inactive = T/C below 125% in these data.

Test system: CD2F1 mice, L1210 leukemia ip, survival T/C
Test: NCI In Vivo Anticancer Drug Screen. Data for tumor model L1210 Leukemia (intraperitoneal) in CD2F1 (CDF1) mice
Details: endpoint: mean survival time, higher = longer survival
Summary of the method: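 Tumor-bearing mice (transplanted tumor) were split into treated and vehicle control groups, and the measured endpoint of each treated group was divided by that of its vehicle controls.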

[1] = dose: 100.0 mg/kg/injection, schedule: Q04DX003 (ip), vehicle: saline with Tween-80
[2] = dose: 200.0 mg/kg/injection, schedule: Q04DX003 (ip), vehicle: saline with Tween-80
[3] = dose: 400.0 mg/kg/injection, schedule: Q04DX003 (ip), vehicle: saline with Tween-80

Measured: T/C

Cc1ccc([N+](=O)[O-])cc1NC(=O)Oc1ccc2c(C)cc(=O)oc2c1
inactive: dose: 100.0 mg/kg/injection, schedule: Q04DX002 (ip), vehicle: Klucel (hydroxypropylcellulose) (HPC) 92 % of control | dose: 200.0 mg/kg/injection, schedule: Q04DX002 (ip), vehicle: Klucel (hydroxypropylcellulose) (HPC) 100 % of control | dose: 400.0 mg/kg/injection, schedule: Q04DX002 (ip), vehicle: Klucel (hydroxypropylcellulose) (HPC) 87 % of control

CCCCC(NC(=O)CN)C(=O)O (stereo unspecified)
inactive: dose: 75.0 mg/kg/injection, schedule: Q04DX002 (ip), vehicle: saline with Tween-80 111 % of control | dose: 150.0 mg/kg/injection, schedule: Q04DX002 (ip), vehicle: saline with Tween-80 91 % of control | dose: 300.0 mg/kg/injection, schedule: Q04DX002 (ip), vehicle: saline with Tween-80 106 % of control

CCOC(=O)CCCCCSc1nn(C2OC(COC(=O)c3ccccc3)C(OC(=O)c3ccccc3)C2OC(=O)c2ccccc2)c(=O)[nH]c1=O (stereo unspecified)
inactive: dose: 12.5 mg/kg/injection, schedule: Q01DX005 (ip), vehicle: distilled water + Tween-80 101 % of control | dose: 25.0 mg/kg/injection, schedule: Q01DX005 (ip), vehicle: distilled water + Tween-80 107 % of control | dose: 50.0 mg/kg/injection, schedule: Q01DX005 (ip), vehicle: distilled water + Tween-80 95 % of control | dose: 100.0 mg/kg/injection, schedule: Q01DX005 (ip), vehicle: distilled water + Tween-80 106 % of control | dose: 200.0 mg/kg/injection, schedule: Q01DX005 (ip), vehicle: distilled water + Tween-80 107 % of control

COc1cc2c(cc1OC)C(Cc1ccccc1[N+](=O)[O-])=NCC2
inactive: dose: 100.0 mg/kg/injection, schedule: Q01DX001 (ip), vehicle: saline 101 % of control | dose: 200.0 mg/kg/injection, schedule: Q01DX001 (ip), vehicle: saline 94 % of control | dose: 400.0 mg/kg/injection, schedule: Q01DX001 (ip), vehicle: saline 95 % of control

Cc1cc(N(C)C)c(C)cc1N=Nc1cc[n+]([O-])cc1
inactive: dose: 56.3 mg/kg/injection, schedule: Q04DX002 (ip), vehicle: saline with Tween-80 96 % of control | dose: 113.0 mg/kg/injection, schedule: Q04DX002 (ip), vehicle: saline with Tween-80 92 % of control

O=P(Oc1ccccc1)(Oc1ccccc1)C(Nc1ccccc1)c1cccnc1 (stereo unspecified)
inactive: dose: 50.0 mg/kg/injection, schedule: Q01DX009 (ip), vehicle: saline with Tween-80 102 % of control | dose: 100.0 mg/kg/injection, schedule: Q01DX009 (ip), vehicle: saline with Tween-80 97 % of control | dose: 200.0 mg/kg/injection, schedule: Q01DX009 (ip), vehicle: saline with Tween-80 94 % of control

COc1ccc(C(C#N)=C2C=CC(=NO)C=C2)cc1
inactive: [1] 98 % of control | [2] 95 % of control | [3] 101 % of control

COC(=O)COc1ccccc1Cl
inactive: dose: 100.0 mg/kg/injection, schedule: Q01DX001 (ip), vehicle: saline with Tween-80 102 % of control | dose: 200.0 mg/kg/injection, schedule: Q01DX001 (ip), vehicle: saline with Tween-80 102 % of control | dose: 400.0 mg/kg/injection, schedule: Q01DX001 (ip), vehicle: saline with Tween-80 104 % of control

COC(=O)C1=NC=NC1=[N+]=[N-]
inactive: dose: 10.0 mg/kg/injection, schedule: Q01DX001 (ip), vehicle: saline 96 % of control | dose: 20.0 mg/kg/injection, schedule: Q01DX001 (ip), vehicle: saline 93 % of control

c1ccc2c(c1)oc1ccccc12
inactive: [1] 98 % of control | [2] 92 % of control | [3] 92 % of control

O=C(NCCCCCCCCCCNC(=O)Nc1ccc(C2=NCCCN2)cc1)Nc1ccc(C2=NCCCN2)cc1
inactive: dose: 5.0 mg/kg/injection, schedule: Q01DX009 (ip), vehicle: saline 103 % of control | dose: 8.0 mg/kg/injection, schedule: Q01DX009 (ip), vehicle: saline 117 % of control | dose: 19.0 mg/kg/injection, schedule: Q01DX009 (ip), vehicle: saline 121 % of control

CSc1nc(N)c2c(C(N)=O)cc(=O)n(C3OC(CO)C(O)C3O)c2n1 (stereo unspecified)
inactive: dose: 12.5 mg/kg/injection, schedule: Q01DX005 (ip), vehicle: water 96 % of control | dose: 25.0 mg/kg/injection, schedule: Q01DX005 (ip), vehicle: water 96 % of control | dose: 50.0 mg/kg/injection, schedule: Q01DX005 (ip), vehicle: water 96 % of control | dose: 100.0 mg/kg/injection, schedule: Q01DX005 (ip), vehicle: water 93 % of control | dose: 200.0 mg/kg/injection, schedule: Q01DX005 (ip), vehicle: water 101 % of control

Nc1ccc(OCc2ccc(C(=O)Nc3cccc(S(=O)(=O)F)c3)cc2)c(Cl)c1
inactive: dose: 100.0 mg/kg/injection, schedule: Q01DX009 (ip), vehicle: saline sonified 91 % of control | dose: 200.0 mg/kg/injection, schedule: Q01DX009 (ip), vehicle: saline sonified 95 % of control | dose: 400.0 mg/kg/injection, schedule: Q01DX009 (ip), vehicle: saline sonified 93 % of control
